Consider 16 compounds from patent US11834414B2, “1-methyl-4-[(4-phenylphenyl)sulfonylmethyl]cyclohexyanol and 1-methyl-4-[[4-(2-pyridyl)phenyl]sulfonylmethyl]cyclohexanol compounds and their therapeutic use” (Modern Biosciences Limited, priority 2018, dated 2023).

The nature of data set [1]: Human hepatocyte stability. The format is in vitro ADME. The conditions noted are these: human, pooled human hepatocytes, human hepatocytes, 1 μM, 60 minute incubation; for hepatocyte CLint at 1 μM: read-out: Human Clint (uL/min/million cells); for half-life at 1 μM: read-out: Human t1/2. On the procedure: (§1) Metabolic stability of test compounds was measured by determination of the rate of disappearance of the compound when incubated in the presence of rat or human hepatocytes, a primary source of the most important enzymes (cytochrome P450s) involved in drug metabolism. Study of drug stability in the presence of primary hepatocytes is accepted as a valuable model permitting rapid prediction of in vivo drug stability.
(§2) Rat or human hepatocytes were obtained from a commercial source and viability was assessed using a trypan blue solution prior to use. Test compounds (final concentration 1 μM, 0.1% DMSO, 0.9% acetonitrile) or a marker (diclofenac or diltiazem, final assay concentration 1 μM, 0.1% DMSO, 0.9% acetonitrile) were incubated with pooled hepatocytes for a 60 minute period and samples removed at up to 6 time points and analysed by LC-MS/MS for the presence/amount of test compounds.
(§3) Each compound was incubated for 0, 5, 15, 30, 45, or 60 minutes. The reactions were stopped by the addition of methanol containing an internal standard (1 μM Tolbutamide) at the appropriate time points, mixed and placed at −20° C. for ≥1 hour to quench and allow protein to precipitate. All samples were centrifuged (2500×g, 20 minutes, 4° C.). The aliquots were analysed using LC-MS/MS. Reactions were performed in duplicate at 37° C.
(§4) Data were processed, and the results plotted as In(concentration) vs. time. The elimination rate constant (slope of the regression line, k) was calculated using the following formula, where C(t) is the concentration at time t and C(0) is the starting concentration:
(§5) The half-life (t1/2) was calculated using the following formula: […]
(§6) The intrinsic clearance (CIint) was calculated using the following formula, where [cell] is the hepatocyte concentration in the assay: […]

A short description of another data set: Rat hepatocyte stability. In kind it is in vitro ADME. The conditions noted are these: rat, pooled rat hepatocytes, 60 minute incubation; for hepatocyte CLint at 1 μM: read-out: Rat Clint (μL/min/million cells); for half-life at 1 μM: read-out: Rat t1/2. As for the experimental part:
as §1, §2, §3, §4, §5, §6

In data set [2] the test system is Thp1 human monocytic cells. As to the kind of experiment: Thp1 Monocyte ATP Production Assay. The format is cell-based. As to conditions: for IC50: Thp1 cells, 24 hour incubation, ATPLite, 9-point range 10 μM to 10 nM, mean of 2 independent experiments; for potency in the Thp1 monocytic ATP assay (in words): compared to the reference compounds. As for the experimental part: In vitro potency of test compounds was determined by incubation with Thp1 human monocytic cells and subsequent determination of Adenosine TriPhosphate (ATP) levels using firefly luciferase.
ATP is present in all metabolically active cells. When cells lose integrity, their ability to synthesise ATP is rapidly lost. […] See, e.g., Kang et al., 2015; Jiang et al., 2013. Levels of ATP can be monitored using a system based on firefly (Photinus pyralis) luciferase (see, e.g., Auld et al., 2009) using commercially available kits. A system known as
ATPlite™ was using to measure effects of the test compounds on cellular viability in vitro. This one-step assay system is an adenosine triphosphate (ATP) monitoring system based on the production of light caused by the reaction of ATP from the cells with added luciferase and D-luciferin, as illustrated in the reaction scheme below:
The emitted light is proportional to the ATP concentration.
Thp1 cells were plated at 112500 cells per well in 125 μL RPMI-1640 (no glucose) with 1% FBS in 96-well plates. Test compounds were prepared as 100 mM solutions in DMSO. These stock solutions were diluted in DMSO and then diluted 1000× in culture medium (RPMI) before being added directly to the wells so as to give the desired final compound concentration. After a 24 hour incubation at 37° C./5% CO2, ATPLite™ (Perkin Elmer) was added to each well (1:10 v/v, 10 μL). The plate was then incubated at room temperature for 5 minutes and the emitted light was quantified on Viewlux with a measurement time of 0.3 seconds and binning 4×4.
The average results for each test compound were expressed as a percent (%) of the average control value reflecting cell viability. The average values across the concentrations tested were then plotted and the IC50 for was calculated by fitting the data to a 4-parameter IC50 equation using software from Graf it (Erithacus Software). Each experiment was repeated twice and the data are presented as the mean IC50 from both experiments.

The target in another data set is CYP3A4 (Homo sapiens (Human), UniProt P08684). The data set is described as follows: Human Cytochrome P450 Inhibition Assay (Bactosomes). The format is in vitro ADME. As to conditions: recombinant Bactosomes, 10 minutes, 37° C.
Sequence of CYP3A4 (P08684 whole entry): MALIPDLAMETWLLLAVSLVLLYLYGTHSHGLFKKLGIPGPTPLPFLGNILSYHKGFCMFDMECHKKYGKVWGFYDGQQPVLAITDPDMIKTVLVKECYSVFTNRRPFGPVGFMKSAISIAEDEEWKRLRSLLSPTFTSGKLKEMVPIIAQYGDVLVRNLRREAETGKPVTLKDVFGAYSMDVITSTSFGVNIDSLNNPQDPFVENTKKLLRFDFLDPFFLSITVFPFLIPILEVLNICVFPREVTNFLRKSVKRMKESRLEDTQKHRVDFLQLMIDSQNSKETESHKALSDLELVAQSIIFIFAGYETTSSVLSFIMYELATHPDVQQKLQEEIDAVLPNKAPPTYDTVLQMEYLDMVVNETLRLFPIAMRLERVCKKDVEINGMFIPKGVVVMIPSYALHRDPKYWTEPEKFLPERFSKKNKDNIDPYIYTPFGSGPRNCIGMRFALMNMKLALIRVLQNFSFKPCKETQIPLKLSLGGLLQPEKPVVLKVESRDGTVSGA
In another data set the target is CYP1A2 (Homo sapiens (Human), UniProt P05177). The data set is described as above.
Sequence of CYP1A2 (P05177 whole entry): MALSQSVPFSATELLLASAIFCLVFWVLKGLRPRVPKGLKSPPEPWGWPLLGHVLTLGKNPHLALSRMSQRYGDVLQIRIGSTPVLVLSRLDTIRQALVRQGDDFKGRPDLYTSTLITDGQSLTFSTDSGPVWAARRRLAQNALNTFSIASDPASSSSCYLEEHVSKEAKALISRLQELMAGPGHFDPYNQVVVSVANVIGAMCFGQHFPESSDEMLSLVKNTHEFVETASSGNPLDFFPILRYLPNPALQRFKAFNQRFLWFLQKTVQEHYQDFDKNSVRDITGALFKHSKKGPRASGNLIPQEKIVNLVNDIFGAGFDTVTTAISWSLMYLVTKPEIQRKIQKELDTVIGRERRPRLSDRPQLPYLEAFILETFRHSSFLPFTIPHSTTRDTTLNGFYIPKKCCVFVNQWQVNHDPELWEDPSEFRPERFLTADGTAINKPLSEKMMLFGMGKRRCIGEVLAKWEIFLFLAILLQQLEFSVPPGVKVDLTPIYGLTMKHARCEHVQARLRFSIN
The target in a further data set is CYP2D6 (Homo sapiens (Human), UniProt P10635). The data set is described as above. The format is in vitro ADME. As to conditions: recombinant Bactosomes, 10 minutes, 37° C.
Sequence of CYP2D6 (P10635 whole entry): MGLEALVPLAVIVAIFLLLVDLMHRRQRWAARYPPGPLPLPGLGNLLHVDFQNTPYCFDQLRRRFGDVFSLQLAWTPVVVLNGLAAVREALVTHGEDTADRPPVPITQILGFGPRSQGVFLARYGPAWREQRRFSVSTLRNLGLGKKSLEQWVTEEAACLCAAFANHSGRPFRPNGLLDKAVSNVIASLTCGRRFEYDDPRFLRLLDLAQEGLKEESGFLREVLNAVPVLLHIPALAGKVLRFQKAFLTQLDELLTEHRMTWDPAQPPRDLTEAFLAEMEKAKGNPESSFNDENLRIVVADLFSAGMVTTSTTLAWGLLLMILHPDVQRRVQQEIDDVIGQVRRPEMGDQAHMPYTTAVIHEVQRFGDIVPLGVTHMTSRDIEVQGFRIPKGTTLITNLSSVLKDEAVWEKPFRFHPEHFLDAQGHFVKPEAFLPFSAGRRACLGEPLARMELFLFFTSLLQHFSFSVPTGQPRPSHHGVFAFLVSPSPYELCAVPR
The target of the next data set is CYP2C19 (Homo sapiens (Human), UniProt P33261). The data set is described as above. The format is in vitro ADME. As to conditions: recombinant Bactosomes, 10 minutes, 37° C.
Sequence of CYP2C19 (P33261 whole entry): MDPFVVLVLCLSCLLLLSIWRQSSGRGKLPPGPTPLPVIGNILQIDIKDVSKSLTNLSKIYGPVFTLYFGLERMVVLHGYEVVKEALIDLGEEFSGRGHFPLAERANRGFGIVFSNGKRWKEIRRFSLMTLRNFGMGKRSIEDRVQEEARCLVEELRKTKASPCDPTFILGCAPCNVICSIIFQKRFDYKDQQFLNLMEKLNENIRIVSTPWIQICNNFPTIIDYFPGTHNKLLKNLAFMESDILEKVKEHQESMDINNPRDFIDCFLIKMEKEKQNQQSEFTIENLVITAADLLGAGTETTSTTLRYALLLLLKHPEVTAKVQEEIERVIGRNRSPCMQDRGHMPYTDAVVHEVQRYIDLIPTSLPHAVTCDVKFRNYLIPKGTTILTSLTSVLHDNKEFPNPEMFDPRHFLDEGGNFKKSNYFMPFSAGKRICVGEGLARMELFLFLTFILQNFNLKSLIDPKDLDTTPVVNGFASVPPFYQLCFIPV
For a further data set, the target named is CYP2C9 (Homo sapiens (Human), UniProt P11712). The description is as above. The conditions noted are these: recombinant Bactosomes, 10 minutes, 37° C. In kind it is in vitro ADME.
Sequence of CYP2C9 (P11712 whole entry): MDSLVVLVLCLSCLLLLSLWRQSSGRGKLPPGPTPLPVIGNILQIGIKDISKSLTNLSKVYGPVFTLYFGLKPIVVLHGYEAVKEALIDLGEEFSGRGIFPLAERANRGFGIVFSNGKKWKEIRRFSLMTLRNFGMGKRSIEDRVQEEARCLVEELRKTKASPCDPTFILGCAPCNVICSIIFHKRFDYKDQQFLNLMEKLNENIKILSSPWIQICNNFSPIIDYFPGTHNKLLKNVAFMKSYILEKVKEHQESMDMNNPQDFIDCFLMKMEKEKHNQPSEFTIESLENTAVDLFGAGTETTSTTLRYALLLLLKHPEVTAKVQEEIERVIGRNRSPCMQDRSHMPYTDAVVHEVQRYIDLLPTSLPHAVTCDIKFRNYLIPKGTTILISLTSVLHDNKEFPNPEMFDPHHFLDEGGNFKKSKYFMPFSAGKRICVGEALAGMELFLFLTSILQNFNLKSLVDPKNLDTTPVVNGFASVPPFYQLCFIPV

For `O=S(=O)(N[C@H]1CC[C@H](O)CC1)c1ccc(-c2ccc(F)cc2F)cc1` [ABD599, reference compound], in data set [1], the hepatocyte CLint at 1 μM turned out to be 22 µL/min/1e6 cells and the half-life at 1 μM was found to be 1.87 h.
For `C[C@]1(O)CC[C@H](NS(=O)(=O)c2ccc(-c3ccc(F)cc3F)cc2)CC1` [ABD900, reference compound], the hepatocyte CLint at 1 μM in “Rat hepatocyte stability” came out at 79 µL/min/1e6 cells; in data set [1], 6.3 µL/min/1e6 cells. Moreover, the values for the half-life at 1 μM (in the data set “Rat hepatocyte stability”; in data set [1]) were 0.298 h and 3.67 h, respectively. In data set [2], this compound came in with an IC50 of 1.1 µM.
With `C[C@]1(O)CC[C@H](CS(=O)(=O)c2ccc(-c3ccc(C#N)cc3F)cc2)CC1` [CHMSA-01-B, 2-Fluoro-4′-(((trans-4-hydroxy-4-methylcyclohexyl)methyl)sulfonyl)-[1,1′-biphenyl]-4-carbonitrile], in data set [1], the hepatocyte CLint at 1 μM was determined as 4.5 µL/min/1e6 cells and the half-life at 1 μM was found to be 4.95 h. In data set [2] (Homo sapiens, THP-1, 24 h), the IC50 stood at 4.4 µM.
Regarding `C[C@]1(O)CC[C@H](CS(=O)(=O)c2ccc(-c3ccc(C#N)cc3F)cc2C(F)(F)F)CC1` [CHMSA-02-B], the IC50 at CYP3A4 is more than 10 µM; at CYP1A2 it was more than 10 µM; on CYP2D6, more than 10 µM; at CYP2C19 it was more than 10 µM; in data set [2] (Homo sapiens, THP-1, 24 h) it was 0.3 µM; at CYP2C9, more than 10 µM. Besides, the hepatocyte CLint at 1 μM in data set [1] was 10.8 µL/min/1e6 cells. The half-life at 1 μM in data set [1] was 2.03 h. In addition, in data set [2], the “potency in the Thp1 monocytic ATP assay (in words)” value is reported as “excellent potency”.
Consider `C[C@]1(O)CC[C@@H](CS(=O)(=O)c2ccc(-c3ccc(C#N)cc3Cl)cc2)CC1` [CHMSA-05-A, 2-chloro-4′-(((cis-4-hydroxy-4-methylcyclohexyl)methyl)sulfonyl)-[1,1′-biphenyl]-4-carbonitrile], for which the IC50 on CYP3A4 was 26.3 µM; on CYP1A2, more than 50 µM; on CYP2D6, more than 50 µM; at CYP2C19, 36.6 µM; in data set [2] (Homo sapiens, THP-1, 24 h), 0.8 µM; on CYP2C9, 7 µM. Moreover, the hepatocyte CLint at 1 μM in data set [1] was found to be 3.3 µL/min/1e6 cells. In addition, the half-life at 1 μM in data set [1] stood at 6.61 h.
Turning to `C[C@]1(O)CC[C@H](CS(=O)(=O)c2ccc(-c3ccc(C#N)cc3Cl)cc2)CC1` [CHMSA-05-B, 2-Chloro-4′-(((trans-4-hydroxy-4-methylcyclohexyl)methyl)sulfonyl)-[1,1′-biphenyl]-4-carbonitrile], in data set [1], the hepatocyte CLint at 1 μM was found to be 6.5 µL/min/1e6 cells and the half-life at 1 μM worked out at 3.79 h. Besides, the IC50 in data set [2] (Homo sapiens, THP-1, 24 h) stood at 2.7 µM.
In data set [2] (Homo sapiens, THP-1, 24 h), `C[C@]1(O)CC[C@@H](CS(=O)(=O)c2ccc(-c3ccc(F)cc3F)c(C#N)c2)CC1` [CHMSA-06-A, 2′,4′-difluoro-4-(((cis-4-hydroxy-4-methylcyclohexyl)methyl)sulfonyl)-[1,1′-biphenyl]-2-carbonitrile] had an IC50 of 1.8 µM.
The same measure, in the same setting: the value for `C[C@]1(O)CC[C@H](CS(=O)(=O)c2ccc(-c3ccc(F)cc3F)c(C#N)c2)CC1` [CHMSA-06-B, 2′,4′-Difluoro-4-(((trans-4-hydroxy-4-methylcyclohexyl)methyl)sulfonyl)-[1,1′-biphenyl]-2-carbonitrile] was 4.5 µM; that for `C[C@]1(O)CC[C@@H](CS(=O)(=O)c2ccc(-c3ccc(C#N)cc3)c(Cl)c2)CC1` [CHMSA-07-A, 2′-chloro-4′-(((cis-4-hydroxy-4-methylcyclohexyl)methyl)sulfonyl)-[1,1′-biphenyl]-4-carbonitrile] was 1.3 µM.
Same read-out and setting: then `C[C@]1(O)CC[C@H](CS(=O)(=O)c2ccc(-c3ccc(C#N)cc3)c(Cl)c2)CC1` [CHMSA-07-B, 2′-Chloro-4′-(((trans-4-hydroxy-4-methylcyclohexyl)methyl)sulfonyl)-[1,1′-biphenyl]-4-carbonitrile], with 2.5 µM.
On to `C[C@]1(O)CC[C@@H](CS(=O)(=O)c2ccc(-c3ccc(F)cc3F)cc2C(F)(F)F)CC1` [CHMSA-08-A, cis-4-(((2′,4′-difluoro-3-(trifluoromethyl)-[1,1′-biphenyl]-4-yl)sulfonyl)methyl)-1-methylcyclohexan-1-ol], for which, in data set [1], the hepatocyte CLint at 1 μM came out at 18 µL/min/1e6 cells and the half-life at 1 μM came to 1.22 h. The IC50 in data set [2] (Homo sapiens, THP-1, 24 h) is 0.2 µM. In addition, the “potency in the Thp1 monocytic ATP assay (in words)” value in data set [2] is given as “excellent potency”.
As to `C[C@]1(O)CC[C@H](CS(=O)(=O)c2ccc(-c3ccc(F)cc3F)cc2C(F)(F)F)CC1` [CHMSA-08-B, trans-4-(((2′,4′-Difluoro-3-(trifluoromethyl)-[1,1′-biphenyl]-4-yl)sulfonyl)methyl)-1-methylcyclohexan-1-ol], the IC50 against CYP1A2 is more than 10 µM; on CYP2D6 it was more than 10 µM; on CYP2C19, more than 25 µM; in data set [2] (Homo sapiens, THP-1, 24 h), 0.4 µM; on CYP2C9, more than 25 µM. Further, the hepatocyte CLint at 1 μM in data set [1] turned out to be 9.8 µL/min/1e6 cells. The half-life at 1 μM in data set [1] worked out at 2.3 h.
In the case of `C[C@]1(O)CC[C@H](CS(=O)(=O)c2ccc(-c3ncc(F)cc3F)cc2C(F)(F)F)CC1` [CHMSA-09-B, trans-4-(((4-(3,5-Difluoropyridin-2-yl)-2-(trifluoromethyl)phenyl)sulfonyl)methyl)-1-methylcyclohexan-1-ol], in data set [1], the hepatocyte CLint at 1 μM worked out at 52.9 µL/min/1e6 cells and the half-life at 1 μM worked out at 0.417 h. This compound also had an IC50 in data set [2] (Homo sapiens, THP-1, 24 h) of 0.5 µM.
For the compound `C[C@]1(O)CC[C@@H](CS(=O)(=O)c2ccc(-c3ccc(Cl)cc3C#N)cc2)CC1` [CHMSA-10-A, 4-chloro-4′-((cis-4-hydroxy-4-methylcyclohexyl)methanesulfonyl)-(1,1′-biphenyl)-2-carbonitrile], in “Rat hepatocyte stability”, the hepatocyte CLint at 1 μM was found to be 149 µL/min/1e6 cells and the half-life at 1 μM came to 0.178 h. In data set [1], the hepatocyte CLint at 1 μM came to 30.8 µL/min/1e6 cells and the half-life at 1 μM stood at 0.617 h. In data set [2] (Homo sapiens, THP-1, 24 h), this compound came in with an IC50 of 1.63 µM.
Regarding `C[C@]1(O)CC[C@@H](CS(=O)(=O)c2ccc(-c3ccc(Cl)cc3Cl)cc2)CC1` [CHMSA-11-A, cis-4-(((2′,4′-dichloro-[1,1′-biphenyl]-4-yl)sulfonyl)methyl)-1-methylcyclohexan-1-ol], the 50% inhibitory concentration (IC50) on CYP1A2 was more than 10 µM; on CYP2D6 it was more than 10 µM; on CYP2C19, 25 µM; in data set [2] (Homo sapiens, THP-1, 24 h), 0.5 µM; on CYP2C9, more than 10 µM. Besides, in data set [1], the hepatocyte CLint at 1 μM was 7.8 µL/min/1e6 cells. Moreover, the half-life at 1 μM in data set [1] was 2.87 h.
As to `C[C@]1(O)CC[C@H](CS(=O)(=O)c2ccc(-c3ccc(Cl)cc3Cl)cc2)CC1` [CHMSA-11-B, trans-4-(((2′,4′-Dichloro-[1,1′-biphenyl]-4-yl)sulfonyl)methyl)-1-methylcyclohexan-1-ol], in data set [1], the hepatocyte CLint at 1 μM amounted to 13.3 µL/min/1e6 cells and the half-life at 1 μM amounted to 1.66 h. Further, the IC50 in data set [2] (Homo sapiens, THP-1, 24 h) came to 0.8 µM.
